This is an account of results in patent publication US9139615B2, “High-affinity, dimeric inhibitors of PSD-95 as efficient neuroprotectants against ischemic brain damage and for treatment of pain” (University of Copenhagen, priority 2011, dated 2015).

Entries after “also recorded” stand apart in the source; their conditions may differ.

Assay type in all cases: in vivo, mice
For one series, the system named is attention. Description: Modified Y-maze test of attention. The following applies: 0.05 and 0.1 mg/kg. The method, then: Testing was carried out in a clear Plexiglass maze composed of 2 perpendicular arms connected to a runway. The 2 arms (available for exploration) and runway were 50 cm long and 8 cm wide, surrounded by clear Plexi-glass walls 30 cm high. Each arm met at a central platform equipped with black removable partitions, enabling arms to be opened and closed as desired. The whole maze was enclosed in a triangular black Plexiglass box (1×1×1 m). The walls of this outer box surrounding each exploration arm were covered with distinct optical cues, e.g., white horizontal or vertical lines. […] The cumulative time spent in each arm was recorded during this test session by an automated video tracking system (Ethovision, Noldus). A discrimination index (DI) was calculated for each mouse, defined as the difference in time spent in the novel and the familiar arm divided by the total time spent in the novel and the familiar arm during phase 2 testing, i.e. DI=(novel−familiar)/(novel+familiar).
Cognitive data: In the social transmission of food preference test, the preference for the cued food was expressed as a discrimination index, DI=(cued−novel)/(cued+novel). In the modified Y-maze, the preference for the novel arm was expressed as a discrimination index, DI=(time in novel−time in familiar)/(time in novel+time in familiar). […]

For series [1], the system named is CFA-induced mechanical allodynia/hyperalgesia. Description: Complete Freund's adjuvant (CFA) inflammatory pain, von Frey test. The following applies: for CFA-induced hyperalgesia: 0.1 mg/kg, given simultaneously with CFA.
In series [2] the test system is long-term reference memory. The series is described as follows: Social transmission of food preference (STFP) test. The conditions noted are these: 0.1 mg/kg (dose reducing hyperalgesia). On the procedure: STFP was conducted in two phases. […] A minimum of 2 and a maximum of 5 licking/sniffing interactions were set as criteria for appropriate acquisition of the odour cue. […] Second phase: following a 24-hour retention interval, the observer mice were placed individually in cages containing two trays of crushed food scented with cinnamon or cocoa, respectively. The amount eaten from the cued food over the novel food is taken as an index of memory for the previously cued food. […] Yet, experiments were designed in a balanced fashion to ensure that an equal number of mice within each treatment group were cued with cinnamon and cocoa, respectively.
Cognitive data: In the social transmission of food preference test, the preference for the cued food was expressed as a discrimination index, DI=(cued−novel)/(cued+novel). In the modified Y-maze, the preference for the novel arm was expressed as a discrimination index, DI=(time in novel−time in familiar)/(time in novel+time in familiar). STFP and Y-maze data were analysed by one-way ANOVA followed by Planned Comparisons was performed to assess treatment effects on the discrimination index.

A further series has as its system motor performance. The series is described as follows: Rotarod test of motor performance (side effects). The following applies: 0.1 mg/kg, at 15, 30, 45 and 60 min. On the procedure: Motor function was evaluated using an accelerating rotarod (MedAssociates, Inc., VT, USA). The rotarod (3.2 cm diameter) speed was increased from 4 to 40 rpm over a 300 s period with the minimum time possible to spend on the rod designated as 0 s and the maximum cut-off time set at 310 s. Each mouse was tested immediately prior to drug treatment (t=0), and again 15, 30, 45 and 60 minutes after drug treatment. When an animal fell off the rotating drum, a photobeam was automatically broken to record the amount of time spent on the rotating rod.
Motor performance: In the rotarod test, treatment effect on motor coordination was analysed using a two-way RM ANOVA, with treatment as the independent factor and time as repeated measure. Planned comparisons procedure was used to assess treatment effects over time.

On to `C[C@]12N[C@H](Cc3ccccc31)c1ccccc12` [MK-801], for which the “discrimination index, modified Y-maze” value in the series on attention was “induced cognitive deficits; also recorded: discrimination index was reduced”. The CFA-induced hyperalgesia entry is “significantly reversed the CFA-induced hyperalgesia” in series [1] (after 1 hour) and “significant reversal was still observed” in series [1] (after 24 hours). For the same compound, the CFA-induced mechanical hyperalgesia result in series [1] (administered concurrently with CFA, 1 hour and 24 hours after treatment) was “prevented the development of CFA-induced mechanical hyperalgesia”. Also, the “discrimination index, social transmission of food preference” value in series [2] is “induced cognitive deficits; also recorded: significantly reduced the discrimination index”. Further, the “motor performance, time on the rotarod” value in the series with motor performance is “motor deficits; also recorded: significantly decreased time on the rotarod”.
